We go through 3 compounds from US7462601B2, “Ameliorant for chemical treatment of cancer” (priority 2002, dated 2008).

Common to all, as to assay type: in vivo, BDF mice
Data set [1] has as its system P388 leukemia cells. Kind of data set: Enhancing carcinostatic action in cancer chemotherapy (2): CPA and TMG, survival of P388 leukemia mice. To be noted: CPA alone administered, 360 mg/kg i.p. 1st, 3rd, 5th, 7th days, 60 days. How it is done: P388 leukemia cells (6×10^6 cells) were administered intraperitoneally to female BDF mice of 8-9 weeks old (8 heads per group, body weight of 20-22 g). On the following day (1st day), cyclophosphamide (CPA) and TMG were administered at respective dose of 360 mg/kg and 0.01 mg/kg were intraperitoneally administered to the mice. Thereafter, CPA (360 mg/kg) was administered on the 3rd, 5th, and 7th days and TMG (0.01 mg/kg) was administered every day from the 2nd through 9th days. The survival ratio of these mice was measured 60 days after the administration of CPA and TMG.

Data set [2] deals with P388 leukemia cells. Description: Enhancing carcinostatic action in cancer chemotherapy (1): CDDP and TMG, survival of P388 leukemia mice. The note with it: 5th, TMG 0, 60 days; for Number surviving: 8 per group. How it is done: P388 leukemia cells (6×10^6 cells) were administered intraperitoneally to female BDF mice of 8-9 weeks old (8 heads per group, body weight of 20-22 g). On the following day, a solution having prescribed amounts of cisplatin (CDDP) and TMG in 0.2 ml of physiological saline was intraperitoneally administered to the mice. The survival ratio of these mice was measured 60 days after the administration of CDDP and TMG.

A short description of data set [3]: Repressing side effects (1): survival after lethal dose of CDDP. On the procedure: CDDP was intraperitoneally administered in a dosage of 16 mg/kg, a lethal dose, to 10 BDF mice of 8 weeks old (22-25 g). These mice formed Control Group. A group of mice to which CDDP was administered simultaneously with TMG in a dosage of 0.01 mg/kg formed Test Group 1 and a group of mice to which CDDP was administered simultaneously with TMG in a dosage of 1.0 mg/kg formed Test Group 2. The time course changes of survival ratio of the Control Group and Test Groups were measured.

Data set [4] in a line: Repressing side effects (2): number of leukocytes in blood under CDDP. The note with it: Control Group: CDDP 2 mg/kg i.p. once daily for 10 days. How it is done: CDDP was intraperitoneally administered in a dosage of 2 mg/kg to 5 BDF mice of 8 weeks old once daily for 10 days. These mice formed Control Group. A group of mice to which CDDP was administered simultaneously with TMG in a dosage of 1 mg/kg once daily for 10 days formed Test Group. The time course changes of the numbers of leukocytes in blood of the Control Group and Test Group were measured.

The test system of data set [5] is P388 leukemia cells. Kind of data set: Enhancing carcinostatic action in cancer chemotherapy (3): ADM and TMG, survival of P388 leukemia mice. To be noted: ADM 16 mg/kg i.p. 1st, 3rd, 5th, 7th days, TMG 0, 7 days after administration. On the procedure:
P388 leukemia cells (6×10^6 cells) were administered intraperitoneally to female BDF mice of 8-9 weeks old (8 heads per group, body weight of 20-22 g). On the following day (1st day), 16 mg/kg of adriamycin (ADM) and a prescribed amount TMG were intraperitoneally administered to the mice. Thereafter, ADM (16 mg/kg) was administered on the 3rd, 5th, and 7th days and TMG (prescribed amount as mentioned above) was simultaneously administered every day on the 2nd-7th days. The survival ratio of these mice was measured 7 days after the administration of ADM and TMG.

The nature of data set [6]: Repressing side effects (4): decrease of body weight under ADM in P388 leukemia mice. To be noted: Control Group: ADM 16 mg/kg once daily for 9 days. On the procedure:
P388 leukemia cells (6×10^6 cells) were administered intraperitoneally to female BDF mice of 8-9 weeks old (8 heads per group, body weight of 20-22 g). On the following day, ADM was administered in a dosage of 16 mg/kg once daily for 9 days. The mice formed Control Group. A group of mice to which TMG was administered simultaneously with ADM in a dosage of 0.1 mg/kg once daily for 9 days formed Test Group.
The time-course changes of the body weight of the Control Group and Test Group were measured.

Setting [7] is: CDDP 2 mg/kg i.p. 1st, 3rd, 7th days.
Setting [8] is: CDDP 4 mg/kg i.p. 1st, 9th days.

For `O=P1(N(CCCl)CCCl)NCCCO1` (centres unmarked) [CPA, cyclophosphamide], in the data set on P388 leukemia cells [1], the Survival ratio came to 50%. Further, the Number surviving in the data set on P388 leukemia cells [1] (8 per group) was 4 Heads.

With `[NH2][Pt]([NH2])([Cl])[Cl]` [CDDP, cisplatin], the Survival ratio is recorded as 75% in the data set with P388 leukemia cells [2] (setting [7]); 75% in the data set on P388 leukemia cells [2] (setting [8]); 100% in data set [3] (Control Group: CDDP 16 mg/kg i.p. (lethal dose) alone, day 0 after administration of CDDP); 80% in data set [3] (Control Group: CDDP 16 mg/kg i.p. alone, day 5); 30% in data set [3] (Control Group: CDDP 16 mg/kg i.p. alone, day 8); 0% in data set [3] (Control Group: CDDP 16 mg/kg i.p. alone, day 10). For the same compound, the Number surviving in the data set with P388 leukemia cells [2] (setting [7]) and in the data set on P388 leukemia cells [2] (setting [8]) was 6 Heads each time. For the same compound, the Number of leukocytes was determined as 20000 µL⁻¹ in data set [4] (day 0 after start of test), 10000 µL⁻¹ in data set [4] (day 10), 6000 µL⁻¹ in data set [4] (day 20) and 11000 µL⁻¹ in data set [4] (day 25).

As to `COc1cccc2c1C(=O)c1c(O)c3c(c(O)c1C2=O)C[C@@](O)(C(=O)CO)C[C@@H]3O[C@H]1C[C@H](N)[C@H](O)[C@H](C)O1` [ADM, adriamycin], the Survival ratio in the data set with P388 leukemia cells [5] came to 0%. Also, the Number surviving in the data set with P388 leukemia cells [5] (8 per group) is reported as 0 Heads. Besides, the “Decrease of body weight” value in data set [6] (P388 mice, day 1 after start of the test) is given as 1.5 g; in data set [6] (day 3) it was 3.3 g; in data set [6] (day 5) it was 5.7 g; in data set [6] (day 7), 6.5 g.
